| melting point | SMILES |
| --- | --- |
| 142 °C | CN(C)c1nnc2n(Cc3cccnc3)c(=O)c3cc(Br)ccc3n12 [Compound 84, 7-Bromo-1-dimethylamino-4-pyridin-3-ylmethyl-4H-[1,2,4]triazolo[4,3-a]quinazolin-5-one] |
| 167 °C | CN(C)c1nnc2n(CC=Cc3ccccc3)c(=O)c3cc(Br)ccc3n12 [Compound 86, 7-Bromo-1-dimethylamino-4-(3-phenyl-allyl)-4H-[1,2,4]triazolo[4,3-a]quinazolin-5-one] |
| 115 °C | CN(C)c1nnc2n(CC=Cc3ccncc3)c(=O)c3cc(Br)ccc3n12 [Compound 87, 7-Bromo-1-dimethylamino-4-(3-pyridin-4-yl-allyl)-4H-[1,2,4]triazolo[4,3-a]quinazolin-5-one] |
| 234 °C | C#CCn1c(=O)c2cc(Br)ccc2n2c(N(C)C)nnc12 [Compound 88, 7-Bromo-1-dimethylamino-4-prop-2-ynyl-4H-[1,2,4]triazolo[4,3-a]quinazolin-5-one] |
| 243 °C | COC(=O)C(c1ccccc1)n1c(=O)c2cc(Br)ccc2n2c(N(C)C)nnc12 (stereo not drawn) [Compound 90, (7-Bromo-1-dimethylamino-5-oxo-5H-[1,2,4]triazolo[4,3-a]quinazolin-4-yl)-phenyl-acetic acid methyl ester] |
| 230 °C | Cc1ccc2c(c1)c(=O)n(CC=Cc1cccnc1)c1nnc(N3CCSCC3)n21 [Compound 100, 7-Methyl-4-(3-pyridin-3-yl-allyl)-1-thiomorpholin-4-yl-4H-[1,2,4]triazolo[4,3-a]quinazolin-5-one] |
| 119 °C | Cc1ccc2c(c1)c(=O)n(CC=Cc1ccncc1)c1nnc(N(C)C)n21 [Compound 105, 1-Dimethylamino-7-methyl-4-(3-pyridin-4yl-allyl)-4H-[1,2,4]triazolo[4,3-a]quinazolin-5-one] |
| 147 to 149 °C | CN(C)c1nnc2n(Cc3ccc(C#N)cc3)c(=O)c3cc(C#N)ccc3n12 [Compound 107, 4-(4-Cyano-benzyl)-1-dimethylamino-5-oxo-4,5-dihydro-[1,2,4]triazolo[4,3-a]quinazoline-7-carbonitrile] |
| 295 °C (dec.) | O=c1c2cc(O)ccc2n2c(N3CCCC3)nnc2n1C/C=C/c1ccccc1 [Compound 108, 7-Hydroxy-4-((E)-3-phenyl-allyl)-1-pyrrolidin-1-yl-4H-[1,2,4]triazolo[4,3-a]quinazolin-5-one] |

The remaining lines, values behind:

| SMILES | melting point |
| --- | --- |
| COC(=O)c1ccc(Cn2c(=O)c3cc(C)ccc3n3c(N4CCCC4)nnc23)cc1 [Compound 95, 4(7-Methyl-5-oxo-1-pyrrolidin-1-yl-5H-[1,2,4]triazolo[4,3-a]quinazolin-4-ylmethyl)-benzoic acid methyl ester] | 230 °C |
| Cc1ccc2c(c1)c(=O)n(Cc1cccnc1)c1nnc(N3CCCC3)n21 [Compound 97, 7-Methyl-4-pyridin-3-ylmethyl-1-pyrrolidin-1-yl-4H-[1,2,4)triazolo[4,3-a]quinazolin-5-one] | 139 °C |
| O=c1nc2n(CC=Cc3ccccc3)nc(N3CCCCCC3)n2c2ccccc12 [Compound 109, 1-(azepan-1-yl)-3-(3-phenylallyl)-3H-[1,2,4]triazolo[4,3-a]-quinazolin-5-one] | 176 °C |
| C=CCn1nc(N2CCCCCC2)n2c3ccc(Cl)cc3c(=O)nc12 [Compound 110, 3-Allyl-1-azepan-1-yl-7-chloro-3H-[1,2,4]triazolo[4,3-a]quinazolin-5-one] | 173 °C |
| O=c1nc2n(Cc3ccccc3)nc(N3CCCCCC3)n2c2ccc(Cl)cc12 [Compound 111, 1-(azepan-1-yl)-7-chloro-3-benzyl-3H-[1,2,4]triazolo[4,3-a]-quinazolin-5-one] | 148 °C |
| Cc1ccc(Cn2nc(N3CCCCCC3)n3c4ccc(Cl)cc4c(=O)nc23)cc1 [Compound 112, 1-Azepan-1-yl-7-chloro-3-(4-methyl-benzyl)-3H-[1,2,4]triazolo[4,3-a]quinazolin-5-one] | 182 °C |

From patent US6828315B1, “1-Amino triazoloc4,3-a! quinazoline-5-ones and/or -5-thiones inhibiting phosphodiesterase IV” (Warner-Lambert LLC, priority 1999, dated 2004)
